Reference: PMC8815882, “Screening the pandemic response box identified benzimidazole carbamates, Olorofim and ravuconazole as promising drug candidates for the treatment of eumycetoma” (PLoS Neglected Tropical Diseases, 2022)
In brackets after ≈: the same amount, converted by molar mass. Where two headings read alike, the source gives them in different places.

Key:
[1] = system: M. mycetomatis genome strain MM55; test: CLSI M38-A2 based in vitro susceptibility screening (XTT or resazurin), growth at fixed concentration; assay type: cell-based, Madurella mycetomatis; settings: Madurella mycetomatis
[2] = system: M. mycetomatis isolate MM55; test: M. mycetomatis grain infection model in G. mellonella larvae, survival; assay type: in vivo, Galleria mellonella; design: In vivo efficacy, Larvae survival %: concentration or dose not given beside the values; settings: for Effect on larvae survival Day 4 (words): day four
[3] = system: ten different M. mycetomatis isolates; test: MIC / MIC50 determination (XTT) in ten M. mycetomatis isolates; assay type: cell-based, Madurella mycetomatis; settings: Madurella mycetomatis
[4] = system: Me. romeroi strain CBS128765; test: CLSI M38-A2 based in vitro susceptibility screening at 25 μM; assay type: cell-based, Medicopsis romeroi; settings: selected if >75% (resazurin) or >80% (XTT) fungal growth inhibited
M. mycetomatis MM55 = test: IC50 determination, 2-fold dilution series 16 to 0.03125 μM; assay type: cell-based, Madurella mycetomatis; settings: for IC50 / IC90: Madurella mycetomatis
[5] = system: ten different M. mycetomatis isolates; design: method as in PMID 24945848, PMID 22964246, PMID 31904836; settings: asterisk: determined in previous works ref 19-21; cited from earlier work
[6] = G. mellonella larvae infected with M. mycetomatis
[7] = median MIC over ten M. mycetomatis isolates, no asterisk, read-out: MIC50
[8] = isolate CBS247.48, read-out: MIC CBS247.48
[9] = isolate MM14, read-out: MIC MM14
[10] = isolate MM45, read-out: MIC MM45
[11] = isolate MM55, read-out: MIC MM55
[12] = isolate ParijsAl1, read-out: MIC ParijsAl1
[13] = isolate Peru72012, read-out: MIC Peru72012
[14] = MM55, Table 2, M. mycetomatis MM55, read-out: IC50
[15] = 25 uM, mean, read-out: Percentage survival at 25um, 25 uM mean
[16] = 25 uM, replicate A, read-out: Percentage survival at 25um, 25 um A
[17] = 25 uM, replicate B, read-out: Percentage survival at 25um, 25 uM B
[18] = 25 uM, replicate C, read-out: Percentage survival at 25um, 25 uM C
[19] = mean, read-out: Percentage survival at 100um, 100 uM mean
[20] = replicate (first column), read-out: Percentage survival at 100um, 100 uM A
[21] = replicate (second column), read-out: Percentage survival at 100um, 100 uM A
[22] = replicate (third column), read-out: Percentage survival at 100um, 100 uM A
[23] = MM55, mean, read-out: IC50 mean
[24] = MM55, replicate 1, read-out: IC50 1
[25] = MM55, replicate 1, read-out: IC90 1
[26] = MM55, replicate 2, read-out: IC50 2
[27] = MM55, replicate 2, read-out: IC90 2
[28] = MM55, replicate 3, read-out: IC50 3
[29] = MM55, replicate 3, read-out: IC90 3

COC(=O)Nc1nc2ccccc2[nH]1 [MMV344625, Carbendazim]
activity at 25 µM ([1]; 25 uM, replicate A, M. mycetomatis MM55, read-out: Percentage survival at 25um, 25 um A): 1.64%
activity at 100 µM ([1]; mean of three, M. mycetomatis MM55, read-out: Percentage survival at 100um, 100 uM mean): 8.48%
activity at 100 µM ([1]; replicate 1, M. mycetomatis MM55, read-out: Percentage survival at 100um, 100 uM A (first replicate column)): 0.376%
activity at 100 µM ([1]; replicate 2, M. mycetomatis MM55, read-out: Percentage survival at 100um, 100 uM A (second replicate column)): 3.66%
activity at 100 µM ([1]; replicate 3, M. mycetomatis MM55, read-out: Percentage survival at 100um, 100 uM A (third replicate column)): 21.4%
activity at 25 µM ([1]; read-out: Percentage survival at 25um, 25 uM B): 6.23%
activity at 25 µM ([1]; read-out: Percentage survival at 25um, 25 uM C): 2.7%
activity at 25 µM ([1]; read-out: Percentage survival at 25um, 25 uM mean): 3.52%
Effect on larvae survival Day 4 (words) ([2]; 20 μM per larvae, vs infected control): Increase survival
Effect on larvae survival Day 4 (words) ([2]; 20 μM per larvae, vs infected control, listed as carbendazim): significantly increase larvae survival
Effect on larvae survival Day 10 (words) ([2]; 20 μM per larvae, vs infected control, day ten): No
In vivo efficacy, Enhanced survival compared to control? [2, 6]: no
In vivo efficacy, Larvae survival % [2, 6]: 6.7%
MIC50 ([3]; Table 3 and Fig 5, benzimidazole carbamates, M. mycetomatis, read-out: MIC50): 0.5 µM (≈ 0.0956 µg/mL)
MIC50 [3, 7]: 0.5 µM (≈ 0.0956 µg/mL)
MIC50 ([3]; over the tested M. mycetomatis isolates, read-out: MIC50 mean): 0.5 µM (≈ 0.0956 µg/mL)
MIC [3, 8]: 0.5 µM (≈ 0.0956 µg/mL)
MIC [3, 9]: < 0.0312 µM
MIC [3, 10]: 1 µM (≈ 0.191 µg/mL)
MIC [3, 11]: 0.5 µM (≈ 0.0956 µg/mL)
MIC ([3]; isolate P1, read-out: MIC P1): 0.5 µM (≈ 0.0956 µg/mL)
MIC [3, 12]: 1 µM (≈ 0.191 µg/mL)
MIC [3, 13]: 1 µM (≈ 0.191 µg/mL)
MIC ([3]; isolate So1, read-out: MIC So1): 0.5 µM (≈ 0.0956 µg/mL)
MIC ([3]; isolate i1, read-out: MIC i1): 0.5 µM (≈ 0.0956 µg/mL)
MIC ([3]; isolate i11, read-out: MIC i11): 2 µM (≈ 0.382 µg/mL)
Inhibits growth of Medicopsis romeroi at 25 μM [4]: inhibit the growth
Drug static or cidal (M. mycetomatis MM55; M. mycetomatis): Static
IC50 (M. mycetomatis MM55; [14]): 1320 nM
IC50 (M. mycetomatis MM55; MM55, mean of replicates, read-out: IC50 mean): 1320 nM
IC50 (M. mycetomatis MM55; MM55, replicate 1, read-out: IC50 1 um): 2280 nM
IC90 (M. mycetomatis MM55; MM55, replicate 1, read-out: IC90 1 um): 4720 nM
IC50 (M. mycetomatis MM55; MM55, replicate 2, read-out: IC50 2 um): 700 nM
IC90 (M. mycetomatis MM55; MM55, replicate 2, read-out: IC90 2 um): 1500 nM
IC50 (M. mycetomatis MM55; MM55, replicate 3, read-out: IC50 3 um): 970 nM
IC90 (M. mycetomatis MM55; MM55, replicate 3, read-out: IC90 3 um): > 25000 nM

O[C@@](Cn1cnnn1)(c1ccc(F)cc1F)C(F)(F)c1ccc(-c2ccc(OCC(F)(F)F)cc2)cn1 [MMV1634386, Oteseconazole, reference compound]
activity at 25 µM [1, 15]: -1.26%
activity at 25 µM [1, 16]: -1.75%
activity at 25 µM [1, 17]: -2.55%
activity at 25 µM [1, 18]: 0.501%
activity at 100 µM [1, 19]: 7.07%
activity at 100 µM [1, 20]: -1.99%
activity at 100 µM [1, 21]: 9.06%
activity at 100 µM [1, 22]: 14.2%
In vivo efficacy, Enhanced survival compared to control? ([2]; in vivo): no
In vivo efficacy, Larvae survival % ([2]; in vivo): 11.1%
MIC50 [3, 7]: 1 µM (≈ 0.527 µg/mL)
MIC50 ([3]; over the isolates tested, read-out: MIC50 mean): 1 µM (≈ 0.527 µg/mL)
MIC [3, 8]: 16 µM (≈ 8.44 µg/mL)
MIC [3, 9]: 1 µM (≈ 0.527 µg/mL)
MIC [3, 10]: 1 µM (≈ 0.527 µg/mL)
MIC [3, 11]: 4 µM (≈ 2.11 µg/mL)
MIC ([3]; isolate P1, read-out: MIC P1): 2 µM (≈ 1.05 µg/mL)
MIC [3, 12]: 2 µM (≈ 1.05 µg/mL)
MIC [3, 13]: 4 µM (≈ 2.11 µg/mL)
MIC ([3]; isolate So1, read-out: MIC So1): 1 µM (≈ 0.527 µg/mL)
MIC ([3]; isolate i1, read-out: MIC i1): 0.25 µM (≈ 0.132 µg/mL)
MIC ([3]; isolate i11, read-out: MIC i11): 8 µM (≈ 4.22 µg/mL)
Drug static or cidal (M. mycetomatis MM55): Cidal
IC50 (M. mycetomatis MM55; [14]): 2660 nM
IC50 (M. mycetomatis MM55; [23]): 2660 nM
IC90 (M. mycetomatis MM55; MM55, read-out: IC90 mean): 5170 nM
IC50 (M. mycetomatis MM55; [24]): 2150 nM
IC90 (M. mycetomatis MM55; [25]): 5000 nM
IC50 (M. mycetomatis MM55; [26]): 2780 nM
IC90 (M. mycetomatis MM55; [27]): 5000 nM
IC50 (M. mycetomatis MM55; [28]): 3060 nM
IC90 (M. mycetomatis MM55; [29]): 5500 nM

CNCC(=O)OCc1cccnc1N(C)C(=O)OC(C)[n+]1cnn(C[C@](O)(c2cc(F)ccc2F)[C@@H](C)c2nc(-c3ccc(C#N)cc3)cs2)c1 (stereo partly shown) [MMV1634494, Isavuconazonium, reference compound]
activity at 25 µM [1, 15]: -2.78%
activity at 25 µM [1, 16]: -3.3%
activity at 25 µM [1, 17]: -6.46%
activity at 25 µM [1, 18]: 1.41%
activity at 100 µM [1, 19]: 7.96%
activity at 100 µM [1, 20]: 2.09%
activity at 100 µM [1, 21]: 14.1%
activity at 100 µM [1, 22]: 7.75%
MIC50 [5]: 0.04 µM
MIC range [5]: <0.02 to 0.17 µM
Drug static or cidal (M. mycetomatis MM55): Cidal
IC50 (M. mycetomatis MM55; [14]): 40 nM
IC50 (M. mycetomatis MM55; [23]): 630 nM
IC90 (M. mycetomatis MM55; MM55, read-out: IC90 mean): 1080 nM
IC50 (M. mycetomatis MM55; [24]): 350 nM
IC90 (M. mycetomatis MM55; [25]): 680 nM
IC50 (M. mycetomatis MM55; [26]): 750 nM
IC90 (M. mycetomatis MM55; [27]): 1300 nM
IC50 (M. mycetomatis MM55; [28]): 790 nM
IC90 (M. mycetomatis MM55; [29]): 1260 nM
